Numbered stars: 1 amine (or outer) side, 2 acyl side, 3 side chain; on linkers, the order of the positions; unused ones are H or OH. Square brackets hold non-standard residues; d marks the D form. Peptide text beside a SMILES is read from it. ξ: configuration not given here. X1 = CSCC[C@H](NC(=N)[C@H](Cc1c[nH]cn1)N[*:1])C(=O)[*:2]; pS = N[C@@H](COP(=O)(O)O)C(=O)O; Ile(3ξ) = CCC(C)[C@H](N)C(=O)O
System: C57BL/6 mice
Assay: DSS-induced mouse model of colonic inflammation
Format: in vivo
Text: Normal mice (C57BL/6; 7 week-old; males) have received the P140 peptide ([…], iv route; 10 mice) or saline only (control group; 10 mice) at days −2 and −1. At day 0, dextran sodium sulfate (DSS; 2-3%) was administrated to induce the disease.
Animals were examined every day for body weight loss, stool consistency, diarrhea, and blood in the feces. The animals were sacrificed around day 14 or at any time if they are very sick (loss >25% body weight). Statistics: Mann-Whitney (exact)

[1] = P140 iv at days −2 and −1, DSS from day 0, vs saline group

`CCC(C)[C@H](NC(=O)[C@H](Cc1ccccc1)NC(=O)[C@H](C)NC(=O)[C@H](Cc1ccc(O)cc1)NC(=O)CNC(=O)[C@H](CCCNC(=N)N)NC(=O)[C@@H]1CCCN1C(=O)[C@H](CCCCN)NC(=O)CNC(=O)[C@H](COP(=O)(O)O)NC(=O)[C@H](CCCNC(=N)N)NC(=O)[C@H](CCCCN)NC(=O)[C@H](CO)NC(=O)[C@H](Cc1ccc(O)cc1)NC(=O)[C@@H](NC(=O)[C@H](CCSC)NC(=N)[C@H](Cc1c[nH]cn1)NC(=O)[C@@H](NC(=O)[C@@H](N)CCCNC(=N)N)C(C)CC)C(C)C)C(=O)N[C@@H](CCC(=O)O)C(=O)N[C@@H](Cc1ccc(O)cc1)C(=O)O` (stereo partly shown) [Compound P140] (H-R[Ile(3ξ)][X1]VYSKR[pS]GKPRGYAF[Ile(3ξ)]EY-OH) was tested, and the Body weight [1] was “No difference”, the Colon size [1] was “significant increase” and the “DAI (disease activity index)” value [1] was “Little difference”. For the same compound, the “Day at which blood appeared in the feces” value (control groups day +6) was “+8 day”.

Source: patent US20190352341A1, “MODIFIED PEPTIDES AND THEIR USE FOR TREATING SYSTEMIC LUPUS ERYTHEMATOSUS” (IMMUPHARMA FRANCE SA, priority 2018, published 2019)
